Legend:
tumor cell lines = experiment: In vitro antiproliferative MTT assay, tumor cell lines (summary over the panel); type: cell-based; settings: HL-60, SF296, HCT-8 and MDA-MB435 tumor cells
Experimental: (§1) The antiproliferative activity of compounds 5a–r was determined based on an MTT assay and using CA-4 as standard against the tumor cell lines: HL-60 (human leukemia), SF-295 (human glioblastoma), MDA-MB435 (melanoma), PC3M (prostate cancer), OVCAR-8 (ovaries adenocarcinoma), NCI-H258M (pulmonary bronchio-alveolar carcinoma) and HCT-8 (adenocarcinoma ileocecal) (Table 2). To determine the selectivity index of compounds 5a–r, their antiproliferative profile was also evaluated toward human lymphocytes (Table 2).
(§2) Compounds (0.009–5 µg/mL) were tested for cytotoxic activity against selected cancer cell lines: SF-295 (glioblastoma), HCT-8 (colon), MDAMB-435 (melanoma), HL60 (leukemia), PC3M (prostate cancer), OVCAR-8 (ovaries adenocarcinoma) and NCI-H258M (pulmonary bronchio-alveolar carcinoma). All cell lines were kindly obtained from the National Cancer Institute (Bethesda, MD, USA).Tumor cell proliferation was quantified through the ability of living cells to reduce the yellow dye 3-(4,5-dimethyl-2-thiazolyl)-2,5-diphenyl-2H-tetrazolium bromide (MTT, Sigma Aldrich)) to a purple formazan product and absorbance was measured at 595 nm (DTX-880, Beckman Coulter).

MDA-MB435 (melanoma) = experiment: In vitro antiproliferative MTT assay, MDA-MB435; type: cell-based; settings: Homo sapiens, MDA-MB-435; Table 4
HL-60 (human leukemia) = experiment: In vitro antiproliferative MTT assay, HL-60; type: cell-based; settings: Homo sapiens, HL-60; Table 4
Experimental: as §1, §2

[1] = tested on: SF-295 (human glioblastoma); experiment: In vitro antiproliferative MTT assay, SF-295; type: cell-based; settings: Homo sapiens, SF-295; Table 4; read-out: IC50 SF295
Experimental: as §1, §2

[2] = tested on: HCT-8 (adenocarcinoma ileocecal); experiment: In vitro antiproliferative MTT assay, HCT-8; type: cell-based; settings: Homo sapiens, HCT-8; Table 4
Experimental: as §1, §2

BALB/c nude mice = settings: intraperitoneally for 4 consecutive days, HFA
Experimental: During the HFA, tumor cells (i.e., SF-295 and HCT-116) were cultivated within biocompatible, semipermeable polyvinylidene fluoride hollow fibers (HFs) and subcutaneously (s.c.) implanted within the dorsal portion of BALB/c nude mice. LASSBio-1586 (5b) and 5-Fluorouracil (5-FU), which was the positive control, were administered intraperitoneally for 4 consecutive days. On day 5, the fibers were removed to quantify the antiproliferative activity of 5b and 5-FU.
A total of 26 female BALB/c nude (nu/nu) mice aging 6–8 weeks were obtained from the animal facilities of State University of São Paulo (USP), Faculty of Medicine, São Paulo (SP), Brazil. They were kept in well-ventilated and sterile cages (Alesco, São Paulo) under standard conditions of light (12 h with alternative day and night cycles) and temperature (22±1°C) and were housed with access to commercial sterile rodent stock diet (Nutrilabor, São Paulo, Brazil) and water ad libitum. As previously mentioned procedures are in accordance with guidelines for the welfare of animals in experimental neoplasia and with national and international standard on the care and use of experimental laboratory animals and were approved by the local Ethical Committee on Animal Research (Process No. 102/2007).
Mice were anaesthetized with ketamine (90 mg/kg) - xylazine (4.5 mg/kg) (Sigma Aldrich). Groups were divided into: a) Negative control (DMSO 5%, n = 6); b) Positive control (5-Flouoruracil, 5-FU, 25 mg/kg/day, n = 7) (Sigma Aldrich); c) LASSBio-1586 (5b; 25 mg/kg/day, n = 7); d) LASSBio-1586 (5b; 50 mg/kg/day, n = 6). A small incision in the neck was incised to permit subcutaneous (s.c.) implantation of the fibers in the dorsal part of the animal. Each animal received 2 fibers at s.c. site. All incisions were sealed with a surgical stapler. The test compounds were administered intraperitoneally during 4 consecutive days. On day 5, fibers were removed to quantify the antiproliferative capacity as described above.

[3] = tested on: HCT-116 (colon carcinoma); experiment: Hollow Fiber Assay (HFA), HCT-116 fibers s.c. in mice; type: in vivo, BALB/c nude mice; settings: 25 mg/kg/day intraperitoneally, 4 days
Experimental: (§3) Cell culture of SF-295 (glioblastoma) and HCT-116 (colon carcinoma) was performed in RPMI 1640 medium supplemented with 10% fetal bovine serum, 2 mM glutamine, at 37°C with 5% CO2.
(§4) Polyvinylidene fluoride (PVDF) HFs with a 1-mm internal diameter and a molecular weight cutoff point of 500 kDa were used (Spectrum Laboratories, Houston, TX). The fibers were cut into pieces 12–15 cm long, washed 2× with sterile distilled water and kept in sterile conditions.
(§5) Before use, under sterile conditions, the fibers were incubated in complete RPMI with 20% fetal bovine serum (FBS) overnight (packaging time). Cell viability was assessed by trypan blue exclusion assay. Then, a cell suspension of 7.0×10^6 cell/mL at 4°C was injected into the fiber, with the ends thereof immediately heat-sealed. The fibers were cut into 2 cm each, transferred to petri plates and incubated in complete RPMI medium for 24 h prior to implantation in mice. Each cell was injected into one fiber of a different color (HCT-116, yellow fibers; SF-295, blue fibers).
(§6) Each animal received 2 fibers at s.c. site. All incisions were sealed with a surgical stapler.
(§7) Tumor cell proliferation was quantified through the ability of living cells to reduce the yellow dye 3-(4,5-dimethyl-2-thiazolyl)-2,5-diphenyl-2H-tetrazolium bromide (MTT, Sigma Aldrich) to a purple formazan product. For this purpose, the fibers removed from animals were incubated with MTT 1 mg/mL in 6-well plates during 4 h at 37°C, 5% CO2 and 95% humidity. The MTT solution was aspirated; fibers were washed with saline solution containing protamine sulphate 2.5% and incubated in protamine solution overnight at 4°C. Fibers were transferred to 24 well plates, cut into 2 or 3 pieces and put to dry. The formazan was dissolved in […] of DMSO, aliquots (150 uL) were transferred to 96 well plates and absorbance was measured at 595 nm (DTX-880, Beckman Coulter).

SF-295 (glioblastoma) = experiment: Hollow Fiber Assay (HFA), SF-295 fibers s.c. in mice; type: in vivo, BALB/c nude mice; settings: 25 mg/kg/day intraperitoneally, 4 days
Experimental: as §3, §4, §5, §6, §7

| IC50 (MDA-MB435 (melanoma)) | IC50 (HL-60 (human leukemia)) | IC50 [1] | melting point | IC50 [2] | SMILES | cytotoxic activity (in words) (tumor cell lines) | deaths of mice during treatment (BALB/c nude mice) | Inhibition (%) HCT-116 [3] | Proliferation (OD595 nm) HCT-116 ([3]; mean ± S.E.M.) | Inhibition (%) SF-295 (SF-295 (glioblastoma)) | Proliferation (OD595 nm) SF-295 (SF-295 (glioblastoma); mean ± S.E.M.) |
| --- | --- | --- | --- | --- | --- | --- | --- | --- | --- | --- | --- |
| > 25 µM | > 25 µM | > 25 µM | 211 to 212 °C | > 25 µM | O=C(N/N=C/c1ccccc1)c1ccccc1 [Compound 9, (E)-N′-benzylidenebenzohydrazide] | loss of cytotoxic activity |  |  |  |  |  |
|  |  |  |  |  | O=c1[nH]cc(F)c(=O)[nH]1 [Compound 5-FU, 5-Fluorouracil, reference compound] |  | no deaths occurred | 62.08% | 0.59±0.10 OD595 nm | 65.40% | 0.52±0.08 OD595 nm |
| > 25 µM | > 25 µM | > 25 µM | 211 to 212 °C | > 25 µM | COc1cc(/C=N/NC(=O)c2ccccc2)cc(OC)c1OC [Compound 10, (E)-N′-(3,4,5-trimethoxybenzylidene)-benzohydrazide] | inactive |  |  |  |  |  |

| SMILES | IC50 (MDA-MB435 (melanoma)) | IC50 (HL-60 (human leukemia)) | IC50 [1] | melting point | IC50 [2] | cytotoxic activity (in words) (tumor cell lines) | deaths of mice during treatment (BALB/c nude mice) | Inhibition (%) HCT-116 [3] | Proliferation (OD595 nm) HCT-116 ([3]; mean ± S.E.M.) | Inhibition (%) SF-295 (SF-295 (glioblastoma)) | Proliferation (OD595 nm) SF-295 (SF-295 (glioblastoma); mean ± S.E.M.) |
| --- | --- | --- | --- | --- | --- | --- | --- | --- | --- | --- | --- |
| COc1cc(NC(=O)N/N=C/c2ccccc2)cc(OC)c1OC [Compound 12, (E)-2-benzylidene-N-(3,4,5-trimetoxyphenyl) hydrazinecarboxamide] | > 25 µM | > 25 µM | > 25 µM | 217 °C | > 25 µM | inactive |  |  |  |  |  |

Source: article PMC3948622, “Docking, Synthesis and Antiproliferative Activity of N-Acylhydrazone Derivatives Designed as Combretastatin A4 Analogues” (PLoS ONE, 2014)
